Molecular target: T1, TGFβ R1 (Homo sapiens, UniProt P36897)
T1 sequence (P36897 34-503): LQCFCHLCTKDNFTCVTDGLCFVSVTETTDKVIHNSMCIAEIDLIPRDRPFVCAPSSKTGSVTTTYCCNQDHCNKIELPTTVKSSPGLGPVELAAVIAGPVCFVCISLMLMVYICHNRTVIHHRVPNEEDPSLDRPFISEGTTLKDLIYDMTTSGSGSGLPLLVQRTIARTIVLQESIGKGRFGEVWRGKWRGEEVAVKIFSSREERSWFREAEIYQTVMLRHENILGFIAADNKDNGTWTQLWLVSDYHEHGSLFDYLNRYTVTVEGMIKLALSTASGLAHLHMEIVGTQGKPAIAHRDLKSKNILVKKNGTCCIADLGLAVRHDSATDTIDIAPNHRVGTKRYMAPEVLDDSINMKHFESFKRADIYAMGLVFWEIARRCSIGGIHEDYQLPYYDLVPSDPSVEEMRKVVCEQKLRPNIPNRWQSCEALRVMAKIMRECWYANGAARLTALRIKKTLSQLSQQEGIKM
Assay: TGFβ R1 autophosphorylation protocol (33P-ATP, phosphocellulose filter plate)
Assay type: biochemical
Details: 10 uM ATP, 170 nM TGFβ R1, 20 minutes at room temperature, read-out: IC50 for Kinase Inhibition
Protocol: The compounds of the invention were tested for their ability to inhibit TGFβ by a TGFβ R^1 autophosphorylation protocol. This was conducted as follows: Compound dilutions and reagents were prepared fresh daily. Compounds were diluted from DMSO stock solutions to 2 times the desired assay concentration, keeping final DMSO concentration in the assay less than or equal to 1%. TGFβ R1 was diluted to 4 times the desired assay concentration in buffer+DTT. ATP was diluted into 4× reaction buffer, and gamma-^33P-ATP was added at 60 uCi/mL.
The assay was performed by adding 10 ul of the enzyme to 20 ul of the compound solution. The reaction was initiated by the addition of 10 ul of ATP mix. Final assay conditions included 10 uM ATP, 170 nM TGFβ R1, and […] in 20 mM MOPS, pH7. The reactions were incubated at room temperature for 20 minutes. The reactions were stopped by transferring 23 ul of reaction mixture onto a phosphocellulose 96-well filter plate, which had been pre-wetted with 15 ul of 0.25M H3PO4 per well. After 5 minutes, the wells were washed 4× with 75 mM H3PO4 and once with 95% ethanol. The plate was dried, scintillation cocktail was added to each well, and the wells were counted in a Packard TopCount microplate scintillation counter.

Row | IC50 | SMILES
1 | 1160 nM | COc1cnc(-c2cc(Cl)ccc2F)nc1Nc1ccncc1C(=O)NC[C@H]1O[C@@H](O)[C@H](O)[C@@H](O)[C@@H]1O [Compound 34, 4-[2-(5-Chloro-2-fluoro-phenyl)-5-methoxy-pyrimidin-4-ylamino)-N-(3,4,5,6-tetahydroxy-tetrahrydro-pyran-2-ylmethyl)-nicotinamide]
2 | 670 nM | COc1cnc(-c2cc(Cl)ccc2F)nc1Nc1ccncc1C(=O)NCC(F)F [Compound 36, 4-[2-(5-Chloro-2-fluoro-phenyl)-5-methoxy-pyrimidin-4-ylamino]-N-(2,2-difluoro-ethyl)-nicotinamide]
3 | 160 nM | COc1cnc(-c2cc(Cl)ccc2F)nc1Nc1ccncc1C(=O)NCC(F)(F)F [Compound 37, 4-[2-(5-Chloro-2-fluoro-phenyl)-5-methoxy-pyrimidin-4-ylamino]-N-(2,2,2-trifluoro-ethyl)-nicotinamide]
4 | 540 nM | COc1cnc(-c2cc(Cl)ccc2F)nc1Nc1ccncc1C(=O)NCCCN1CCN(C)CC1 [Compound 38, 4-[2-(5-Chloro-2-fluoro-phenyl)-5-methoxy-pyrimidin-4-ylamino]-N-[3-(4-methyl-piperazin-1-yl)-propyl]-nicotinamide]
5 | 50 nM | COc1cnc(-c2cc(Cl)ccc2F)nc1Nc1ccncc1C(=O)NCCN [Compound 39, N-(2-Amino-ethyl)-4-[2-(5-chloro-2-fluoro-phenyl)-5-methoxy-pyrimidin-4-ylamino]-nicotinamide]
6 | 50 nM | CN/C(=N\C#N)NCCCNC(=O)c1cnccc1Nc1nc(-c2cc(Cl)ccc2F)ncc1OC [Compound 41]
7 | 120 nM | COc1cnc(-c2cc(Cl)ccc2F)nc1Nc1ccncc1C(=O)NCCCN/C(=N/C#N)NC(C)C [Compound 42]
8 | 60 nM | COc1cnc(-c2cc(Cl)ccc2F)nc1Nc1ccncc1C(=O)NCCCN/C(=N/C#N)N1CCOCC1 [Compound 43]
9 | 130 nM | COc1cnc(-c2cc(Cl)ccc2F)nc1Nc1ccncc1C(=O)NCCCN/C(=N/C#N)N1CCC1 [Compound 44]
10 | 20 nM | CN(C)c1cnc(-c2cc(Cl)ccc2F)nc1Nc1ccncc1C(=O)NCCNCCO [Compound 50]
11 | 120 nM | CN(C)c1cnc(-c2cc(Cl)ccc2F)nc1Nc1ccncc1C(=O)NCC(C)(C)O [Compound 51]
12 | 90 nM | CC(C)c1cnc(-c2cc(Cl)ccc2F)nc1Nc1ccncc1C(=O)NCC(C)(C)O [Compound 52, 4-[2-(5-Chloro-2-fluoro-phenyl)-5-isopropyl-pyrimidin-4-ylamino]-N-(2-hydroxy-2-methyl-propyl)-nicotinamide]
13 | 130 nM | COc1cnc(-c2cc(Cl)ccc2F)nc1Nc1ccncc1C(=O)NC[C@H](O)[C@@H](O)CN [Compound 55, N-(4-Amino-2,3-dihydroxy-butyl)-4-[2-(5-chloro-2-fluoro-phenyl)-5-methoxy-pyrimidin-4-ylamino]-nicotinamide]
14 | 1200 nM | COc1cnc(-c2cc(Cl)ccc2F)nc1Nc1ccncc1C(=O)NCC(C)C(=O)O (stereo not drawn) [Compound 56, 3-({4-[2-(5-Chloro-2-fluoro-phenyl)-5-methoxy-pyrimidin-4-ylamino)-pyridine-3-carbonyl)-amino)-2-methyl-propionic acid]
15 | 70 nM | COc1cnc(-c2cc(Cl)ccc2F)nc1Nc1ccncc1C(=O)NCCn1cccc1 [Compound 57, 4-[2-(5-Chloro-2-fluoro-phenyl)-5-methoxy-pyrimidin-4-ylamino]-N-(2-pyrrol-1-yl-ethyl)-nicotinamide]
16 | 470 nM | COc1cnc(-c2cc(Cl)ccc2F)nc1Nc1ccncc1C(=O)NCC(C)(C)O [Compound 58, 4-[2-(5-Chloro-2-fluoro-phenyl)-5-methoxy-pyrimidin-4-ylamino]-N-(2-hydroxy-2-methyl-propyl)-nicotinamide]
17 | 11800 nM | COc1cnc(-c2cc(Cl)ccc2F)nc1Nc1ccncc1C(=O)NCC1(O)CCCCC1 [Compound 61, 4-[2-(5-Chloro-2-fluoro-phenyl)-5-methoxy-pyrimidin-4-ylamino]-N-(1-hydroxy-cyclohexylmethyl)-nicotinamide]

Row | IC50 | SMILES
18 | 360 nM | COc1cnc(-c2cc(Cl)ccc2F)nc1Nc1ccncc1C(=O)N[C@@H]1CCOC1=O [Compound 62, 4-[2-(5-Chloro-2-fluoro-phenyl)-5-methoxy-pyrimidin-4-ylamino]-N-(2-oxo-tetrahydro-furan-3-yl)-nicotinamide]
19 | 100 nM | COc1cnc(-c2cc(Cl)ccc2F)nc1Nc1ccncc1C(=O)NCC(O)CN (stereo not drawn) [Compound 63, N-(3-Amino-2-hydroxy-propyl)-4-[2-(5-chloro-2-fluoro-phenyl)-5-methoxy-pyrimidin-4-ylamino]-nicotinamide]
20 | 890 nM | COc1cnc(-c2cc(Cl)ccc2F)nc1Nc1ccncc1C(=O)NCCCNC(=O)NC1CCCCC1 [Compound 64, 4-[2-(5-Chloro-2-fluoro-phenyl)-5-methoxy-pyrimidin-4-ylamino]-N-[3-(3-cyclohexyl-ureido)-propyl]-nicotinamide]
21 | 590 nM | COc1cnc(-c2cc(Cl)ccc2F)nc1Nc1ccncc1C(=O)NCCCNC(=O)Nc1ccccc1 [Compound 65, 4-[2-(5-Chloro-2-fluoro-phenyl)-5-methoxy-pyrimidin-4-ylamino]-N-[3-(3-phenyl-ureido)-propyl]-nicotinamide]
22 | 270 nM | COc1cnc(-c2cc(Cl)ccc2F)nc1Nc1ccncc1C(=O)NCCCNC(=O)NC(C)C [Compound 66, 4-[2-(5-Chloro-2-fluoro-phenyl)-5-methoxy-pyrimidin-4-ylamino]-N-[3-(3-isopropyl-ureido)-propyl]-nicotinamide]
23 | 440 nM | COc1ccc(NC(=O)NCCCNC(=O)c2cnccc2Nc2nc(-c3cc(Cl)ccc3F)ncc2OC)cc1OC [Compound 67, 4-[2-(5-Chloro-2-fluoro-phenyl)-5-methoxy-pyrimidin-4-ylamino]-N-{3-[3-(3,4-dimethoxy-phenyl)-ureido]-propyl}-nicotinamide]
24 | 1540 nM | CNC(=O)NCCNC(=O)c1cnccc1Nc1nc(-c2cc(Cl)ccc2F)ncc1OC [Compound 68, 4-[2-(5-chloro-2-fluoro-phenyl)-5-methoxy-pyrimidin-4-ylamino]-N-[2-(3-methyl-ureido)-ethyl]nicotinamide]
25 | 150 nM | CCNC(=O)NCCNC(=O)c1cnccc1Nc1nc(-c2cc(Cl)ccc2F)ncc1OC [Compound 69, 4-[2-(5-Chloro-2-fluoro-phenyl)-5-methoxy-pyrimidin-4-ylamino]-N-[2-(3-ethyl-ureido)-ethyl]-nicotinamide]
26 | 200 nM | COc1cnc(-c2cc(Cl)ccc2F)nc1Nc1ccncc1C(=O)NCCC(N)=O [Compound 70, N-(2-Carbamoyl-ethyl)-4-[2-(5-choro-2-fluoro-phenyl)-5-methoxy-pyrimidin-4-ylamino]-nicotinamide]
27 | 760 nM | COc1cnc(-c2cc(Cl)ccc2F)nc1Nc1ccncc1C(=O)NCCNc1ccccc1 [Compound 71, 4-[2-(5-Chloro-2-fluoro-phenyl)-5-methoxy-pyrimidin-4-ylamino]-N-(2-phenylamino-ethyl)-nicotinamide]
28 | 100 nM | COc1cnc(-c2cc(Cl)ccc2F)nc1Nc1ccncc1C(=O)NCCC#N [Compound 72, 4-[2-(5-Chloro-2-fluoro-phenyl)-5-methoxy-pyrimidin-4-ylamino]-N-(2-cyano-ethyl)-nicotinamide]
29 | 360 nM | COc1cnc(-c2cc(Cl)ccc2F)nc1Nc1ccncc1C(=O)NCC(O)CN1CCOCC1 (stereo not drawn) [Compound 73, 4-[2-(5-Chloro-2-fluoro-phenyl)-5-methoxy-pyrimidin-4-ylamino]-N-(2-hydroxy-3-morpholin-4-yl-propyl)-nicotinamide]
30 | 150 nM | CNC(=O)NCCCNC(=O)c1cnccc1Nc1nc(-c2cc(Cl)ccc2F)ncc1OC [Compound 74, 4-[2-(5-Chloro-2-fluoro-phenyl)-5-methoxy-pyrimidin-4-ylamino]-N-[3-(3-methyl-ureido)-propyl]-nicotinamide]
31 | 110 nM | CCNC(=O)NCCCNC(=O)c1cnccc1Nc1nc(-c2cc(Cl)ccc2F)ncc1OC [Compound 75]
32 | 320 nM | COc1cnc(-c2cc(Cl)ccc2F)nc1Nc1ccncc1C(=O)NCCCNC(=O)Nc1ccc2c(c1)OCO2 [Compound 76, N-[3-(3-Benzo[1,3]dioxol-5-yl-ureido)-propyl]-4-[2-(5-chloro-2-fluoro-phenyl)-5-methoxy-pyrimidin-4-ylamino]-nicotinamide]
33 | 40 nM | COc1cnc(-c2cc(Cl)ccc2F)nc1Nc1ccncc1C(=O)NCCCN1CC[C@@H](O)C1 [Compound 77, 4-[2-(5-Chloro-2-fluoro-phenyl)-5-methoxy-pyrimidin-4-ylamino]-N-[3-(3-hydroxy-pyrrolidin-1-yl)-propyl]-nicotinamide]

Reference: patent US20060281763A1, “Carboxamide inhibitors of TGFbeta” (priority 2005, published 2006)
